Tests used:
Experiment in all cases: relative viability (nuclei count vs DMSO), 5 days (fraction); higher = more cells survive
Masitinib + Linsitinib = compound: Cc1ccc(NC(=O)c2ccc(CN3CCN(C)CC3)cc2)cc1Nc1nc(-c2cccnc2)cs1 [Masitinib] + C[C@]1(O)C[C@@H](c2nc(-c3ccc4ccc(-c5ccccc5)nc4c3)c3c(N)nccn32)C1 [Linsitinib] (partner 1 µM)
Outline: (§1)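 Dosing by pin tool came one day after lung cancer cell lines were seeded in 1536-well plates, using either one drug or a fixed anchor-drug dose plus five library-drug doses (not always all listed) in √10 steps. After 5 days, nuclei were counted on 4× images. Relative viability is treated-well nuclei count divided by vehicle-well nuclei count, and values are medians of duplicate plates.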

Masitinib + Crizotinib = compound: Cc1ccc(NC(=O)c2ccc(CN3CCN(C)CC3)cc2)cc1Nc1nc(-c2cccnc2)cs1 [Masitinib] + C[C@@H](Oc1cc(-c2cnn(C3CCNCC3)c2)cnc1N)c1c(Cl)ccc(F)c1Cl [Crizotinib] (partner 1 µM)
Outline: as §1

[1] = compound: CC1=CC(=CC=C1)NC2=NC(=CS2)C3=CC=NC=C3 + CC1(C)CCC(c2ccc(Cl)cc2)=C(CN2CCN(c3ccc(C(=O)NS(=O)(=O)c4ccc(N[C@H](CCN5CCOCC5)CSc5ccccc5)c(S(=O)(=O)C(F)(F)F)c4)cc3)CC2)C1 [Navitoclax] (partner 0.5 µM)
Outline: as §1

[2] = compound: CC1=CC(=CC=C1)NC2=NC(=CS2)C3=CC=NC=C3 + CC(=O)c1c(C)c2cnc(Nc3ccc(N4CCNCC4)cn3)nc2n(C2CCCC2)c1=O [Palbociclib] (partner 0.5 µM)
Outline: as §1

| Cell Line | relative viability (Masitinib + Linsitinib; first compound 0.01 µM) | relative viability (Masitinib + Linsitinib; first compound 0.03162 µM) | relative viability (Masitinib + Linsitinib; first compound 0.1 µM) | relative viability (Masitinib + Linsitinib; first compound 0.3162 µM) | relative viability (Masitinib + Linsitinib; first compound 1 µM) | relative viability (Masitinib + Crizotinib; first compound 0.01 µM) | relative viability (Masitinib + Crizotinib; first compound 0.03162 µM) | relative viability (Masitinib + Crizotinib; first compound 0.1 µM) | relative viability (Masitinib + Crizotinib; first compound 0.3162 µM) | relative viability (Masitinib + Crizotinib; first compound 1 µM) | relative viability ([1]; first compound 0.08 µM) | relative viability ([1]; first compound 0.253 µM) | relative viability ([1]; first compound 0.8 µM) | relative viability ([1]; first compound 2.53 µM) | relative viability ([1]; first compound 8 µM) | relative viability ([2]; first compound 0.08 µM) | relative viability ([2]; first compound 0.253 µM) | relative viability ([2]; first compound 0.8 µM) | relative viability ([2]; first compound 2.53 µM) | relative viability ([2]; first compound 8 µM) |
| --- | --- | --- | --- | --- | --- | --- | --- | --- | --- | --- | --- | --- | --- | --- | --- | --- | --- | --- | --- | --- |
| NCI-H1666 | 0.806 | 0.774 | 0.846 | 0.781 | 0.718 | 0.91 | 1.17 | 1.03 | 0.744 | 0.832 | 0.82 | 0.818 | 0.535 | 0.578 | 0.417 | 0.664 | 0.631 | 0.546 | 0.584 | 0.617 |
| NCI-H1734 | 0.857 | 0.854 | 0.943 | 0.747 | 0.855 | 0.668 | 0.777 | 0.862 | 0.503 | 0.615 | 0.835 | 0.834 | 0.827 | 0.869 | 0.698 | 0.352 | 0.315 | 0.344 | 0.347 | 0.359 |
| NCI-H1755 | – | 0.976 | 1 | 1.02 | 0.955 | – | 0.804 | 0.866 | 0.816 | 0.828 | 0.923 | 0.937 | 0.846 | 0.824 | 0.679 | 0.432 | 0.429 | 0.412 | 0.442 | 0.393 |
| NCI-H1792 | 0.504 | 0.224 | 0.533 | 0.454 | 0.529 | 0.866 | 0.449 | 0.993 | 0.829 | 1.05 | 0.513 | 0.469 | 0.537 | 0.515 | 0.657 | 0.596 | – | 0.614 | 0.624 | 0.672 |
| NCI-H1915 | – | 1.15 | 1.09 | 0.974 | 1.03 | – | 0.995 | 1.01 | 1.03 | 1.08 | 0.747 | 0.791 | 0.84 | 0.779 | 0.811 | 0.545 | 0.47 | 0.53 | 0.524 | 0.492 |
| NCI-H1944 | – | 1.14 | 0.794 | 1.12 | 1.17 | – | 1.15 | 0.59 | 0.988 | 1.1 | 1.03 | 1.01 | 1.05 | 1.01 | 1.01 | 0.288 | 0.307 | 0.298 | 0.299 | 0.292 |
| NCI-H1975 | 0.995 | 0.92 | 1.03 | 0.832 | 0.908 | 0.948 | 0.88 | 1.06 | 0.872 | 0.926 | 1.16 | 1.13 | 0.879 | 0.895 | 0.726 | 0.497 | 0.416 | 0.51 | 0.374 | 0.241 |
| NCI-H1993 | 0.732 | – | 0.733 | 0.659 | 0.665 | 0.942 | – | 0.883 | 0.755 | 0.718 | 0.724 | 0.718 | 0.818 | 0.775 | 0.793 | 0.594 | 0.604 | 0.476 | 0.554 | 0.533 |
| NCI-H2009 | 1.2 | 1.22 | 1.24 | 1.23 | 1.17 | 1.03 | 1.09 | 1 | 1.02 | 0.99 | 1.05 | 1.12 | 1.11 | 1.18 | 1.02 | 0.251 | 0.309 | 0.28 | 0.279 | 0.23 |
| NCI-H2023 | 0.597 | 0.681 | 0.703 | 0.613 | 0.597 | 0.638 | 0.737 | 0.645 | 0.493 | 0.589 | 0.958 | 0.961 | 0.945 | 0.916 | 0.715 | 0.408 | 0.428 | 0.424 | 0.355 | 0.112 |
| NCI-H2085 | 0.787 | 0.914 | 0.955 | 1.01 | 0.726 | 0.784 | 0.775 | 0.868 | 0.985 | 0.853 | 0.959 | 1.13 | 1.12 | 1.12 | 0.809 | 0.464 | 0.463 | 0.475 | 0.47 | 0.349 |
| NCI-H2087 | 0.936 | 0.951 | 0.923 | 1.01 | 0.884 | 0.669 | 0.913 | 0.899 | 0.891 | 0.951 | 0.963 | 0.996 | 0.945 | 0.799 | 0.82 | 0.186 | 0.245 | 0.227 | 0.238 | 0.221 |
| NCI-H2126 | 0.707 | 0.656 | 0.785 | 0.691 | 0.659 | 1.02 | 1.09 | 1.05 | 1.07 | 0.993 | 0.828 | 0.912 | 0.849 | 0.909 | 0.778 | 0.336 | 0.38 | 0.346 | 0.321 | 0.339 |
| NCI-H2228 | 0.703 | 0.58 | 0.609 | 0.807 | 0.52 | 0.417 | 0.481 | 0.717 | 0.415 | 0.669 | 0.866 | 1.07 | 0.622 | 0.969 | 0.655 | 0.655 | 0.797 | 0.74 | 0.749 | 0.615 |
| NCI-H2347 | 0.758 | 0.911 | 0.867 | 0.948 | 1.09 | 0.731 | 0.759 | 0.891 | 0.707 | 0.688 | 0.613 | 0.751 | 0.599 | 0.83 | 0.632 | 0.392 | 0.417 | 0.413 | 0.444 | 0.436 |
| NCI-H2405 | 0.96 | 1.01 | 0.945 | 0.882 | 0.9 | 0.77 | 0.784 | 0.848 | 0.802 | 0.746 | 0.732 | 0.802 | 0.655 | 0.883 | 0.673 | 0.49 | 0.489 | 0.488 | – | 0.498 |
